Compound `COc1cc(N)nc(OC)n1` has a solubility (mole fraction) (in DMF, 283.15 K) of 0.055, a solubility (mole fraction) (in DMF, 288.15 K) of 0.0726 and a solubility (mole fraction) (in DMF, 293.15 K) of 0.0949. The solubility (mole fraction) (in DMF, 298.15 K) was 0.123, the solubility (mole fraction) (in DMF, 303.15 K) was 0.158 and the solubility (mole fraction) (in DMF, 308.15 K) was 0.201. The solubility (mole fraction) (in DMF, 313.15 K) was 0.254, the solubility (mole fraction) (in DMF, 318.15 K) was 0.319 and the solubility (mole fraction) (in DMF, 323.15 K) was 0.397. It also gave a solubility (mole fraction) (in ethanol, 283.15 K) of 0.0101, a solubility (mole fraction) (in ethanol, 288.15 K) of 0.013 and a solubility (mole fraction) (in ethanol, 293.15 K) of 0.0164. It also gave a solubility (mole fraction) (in ethanol, 298.15 K) of 0.0205, a solubility (mole fraction) (in ethanol, 303.15 K) of 0.0253 and a solubility (mole fraction) (in ethanol, 308.15 K) of 0.0313. For the same compound, the solubility (mole fraction) (in ethanol, 313.15 K) was 0.0383, the solubility (mole fraction) (in ethanol, 318.15 K) was 0.0463 and the solubility (mole fraction) (in ethanol, 323.15 K) was 0.0561. The solubility (mole fraction) (in isopropanol, 283.15 K) was 0.00553, the solubility (mole fraction) (in isopropanol, 288.15 K) was 0.00742 and the solubility (mole fraction) (in isopropanol, 293.15 K) was 0.0101. It also gave a solubility (mole fraction) (in isopropanol, 298.15 K) of 0.0133, a solubility (mole fraction) (in isopropanol, 303.15 K) of 0.0175 and a solubility (mole fraction) (in isopropanol, 308.15 K) of 0.023. For the same compound, the solubility (mole fraction) (in isopropanol, 313.15 K) was 0.0297, the solubility (mole fraction) (in isopropanol, 318.15 K) was 0.038 and the solubility (mole fraction) (in isopropanol, 323.15 K) was 0.0484. The solubility (mole fraction) (in methanol, 283.15 K) was 0.0181, the solubility (mole fraction) (in methanol, 288.15 K) was 0.0214 and the solubility (mole fraction) (in methanol, 293.15 K) was 0.0254. For the same compound, the solubility (mole fraction) (in methanol, 298.15 K) was 0.0301, the solubility (mole fraction) (in methanol, 303.15 K) was 0.0352 and the solubility (mole fraction) (in methanol, 308.15 K) was 0.0414. For the same compound, the solubility (mole fraction) (in methanol, 313.15 K) was 0.0482, the solubility (mole fraction) (in methanol, 318.15 K) was 0.0559 and the solubility (mole fraction) (in methanol, 323.15 K) was 0.0643. For the same compound, the solubility (mole fraction) (in water, 283.15 K) was 0.000298, the solubility (mole fraction) (in water, 288.15 K) was 0.000347 and the solubility (mole fraction) (in water, 293.15 K) was 0.000405. It also gave a solubility (mole fraction) (in water, 298.15 K) of 0.000464, a solubility (mole fraction) (in water, 303.15 K) of 0.000534 and a solubility (mole fraction) (in water, 308.15 K) of 0.000614. For the same compound, the solubility (mole fraction) (in water, 313.15 K) was 0.000695, the solubility (mole fraction) (in water, 318.15 K) was 0.000788 and the solubility (mole fraction) (in water, 323.15 K) was 0.000897.

From BigSolDB 2.1
